In PubChem BioAssay (NCI):
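Compound exposure: 48 hours, 5 concentrations, 96-well plates. Definition used: TGI = concentration required for complete inhibition of growth.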

Legend:
Assay in all cases: DTP human tumour cell line panel, 48 h
786-0 renal = test system: 786-0 renal
A498 renal = test system: A498 renal
A549 NSCLC = test system: A549 NSCLC
ACHN renal = test system: ACHN renal
BT-549 breast = test system: BT-549 breast
CAKI-1 renal = test system: CAKI-1 renal
CCRF-CEM leukemia = test system: CCRF-CEM leukemia
COLO 205 colon = test system: COLO 205 colon
DU-145 prostate = test system: DU-145 prostate
EKVX NSCLC = test system: EKVX NSCLC
HCC-2998 colon = test system: HCC-2998 colon
HCT-116 colon = test system: HCT-116 colon
HCT-15 colon = test system: HCT-15 colon
HL-60(TB) leukemia = test system: HL-60(TB) leukemia
HOP-62 NSCLC = test system: HOP-62 NSCLC
HOP-92 NSCLC = test system: HOP-92 NSCLC
HS 578T breast = test system: HS 578T breast
HT29 colon = test system: HT29 colon
IGROV1 ovarian = test system: IGROV1 ovarian
K-562 leukemia = test system: K-562 leukemia
KM12 colon = test system: KM12 colon
LOX IMVI melanoma = test system: LOX IMVI melanoma
M14 melanoma = test system: M14 melanoma
MALME-3M melanoma = test system: MALME-3M melanoma
MCF7 breast = test system: MCF7 breast
MDA-MB-231 breast = test system: MDA-MB-231 breast
MDA-MB-435 = test system: MDA-MB-435
MDA-N = test system: MDA-N
MOLT-4 leukemia = test system: MOLT-4 leukemia
NCI-H226 lung = test system: NCI-H226 lung
NCI-H23 lung = test system: NCI-H23 lung
NCI-H460 lung = test system: NCI-H460 lung
NCI-H522 lung = test system: NCI-H522 lung
NCI/ADR-RES ovarian = test system: NCI/ADR-RES ovarian
OVCAR-4 ovarian = test system: OVCAR-4 ovarian
OVCAR-5 ovarian = test system: OVCAR-5 ovarian
OVCAR-8 ovarian = test system: OVCAR-8 ovarian
PC-3 prostate = test system: PC-3 prostate
RPMI-8226 leukemia = test system: RPMI-8226 leukemia
RXF 393 renal = test system: RXF 393 renal
SF-268 CNS = test system: SF-268 CNS
SF-295 CNS = test system: SF-295 CNS
SK-MEL-2 melanoma = test system: SK-MEL-2 melanoma
SK-MEL-28 melanoma = test system: SK-MEL-28 melanoma
SK-MEL-5 melanoma = test system: SK-MEL-5 melanoma
SK-OV-3 ovarian = test system: SK-OV-3 ovarian
SN12C renal = test system: SN12C renal
SNB-19 CNS = test system: SNB-19 CNS
SNB-75 CNS = test system: SNB-75 CNS
SR leukemia = test system: SR leukemia
SW-620 colon = test system: SW-620 colon
T-47D breast = test system: T-47D breast
TK-10 renal = test system: TK-10 renal
U251 CNS = test system: U251 CNS
UACC-257 melanoma = test system: UACC-257 melanoma
UACC-62 melanoma = test system: UACC-62 melanoma
UO-31 renal = test system: UO-31 renal

Structure (SMILES): Cc1nnc(N)nc1C/C=C/C(Sc1ccc(Cl)cc1)c1ccccc1 (configuration not stated)
- TGI (786-0 renal): 11.4 µM
- TGI (A498 renal): 23.9 µM
- TGI (A549 NSCLC): > 64.7 µM
- TGI (ACHN renal): 18.2 µM
- TGI (BT-549 breast): 27.7 µM
- TGI (CAKI-1 renal): > 39.5 µM
- TGI (CCRF-CEM leukemia): 3.23 µM
- TGI (COLO 205 colon): > 41.9 µM
- TGI (DU-145 prostate): > 45.4 µM
- TGI (EKVX NSCLC): 16.1 µM
- TGI (HCC-2998 colon): 23.4 µM
- TGI (HCT-116 colon): > 27.8 µM
- TGI (HCT-15 colon): 15.9 µM
- TGI (HL-60(TB) leukemia): 6.13 µM
- TGI (HOP-62 NSCLC): 19.6 µM
- TGI (HOP-92 NSCLC): 23.7 µM
- TGI (HS 578T breast): 24.6 µM
- TGI (HT29 colon): 25.6 µM
- TGI (IGROV1 ovarian): 5.37 µM
- TGI (K-562 leukemia): > 100 µM
- TGI (KM12 colon): 15.7 µM
- TGI (LOX IMVI melanoma): 7.7 µM
- TGI (M14 melanoma): 20.7 µM
- TGI (MALME-3M melanoma): 14.6 µM
- TGI (MCF7 breast): > 34.7 µM
- TGI (MDA-MB-231 breast): > 33.1 µM
- TGI (MDA-MB-435): 14.9 µM
- TGI (MDA-N): > 95.9 µM
- TGI (MOLT-4 leukemia): > 32 µM
- TGI (NCI-H226 lung): 4.64 µM
- TGI (NCI-H23 lung): 22.2 µM
- TGI (NCI-H460 lung): 17.3 µM
- TGI (NCI-H522 lung): 3.69 µM
- TGI (NCI/ADR-RES ovarian): > 34.2 µM
- TGI (OVCAR-4 ovarian): 19.6 µM
- TGI (OVCAR-5 ovarian): 23 µM
- TGI (OVCAR-8 ovarian): 34.8 µM
- TGI (PC-3 prostate): 14.6 µM
- TGI (RPMI-8226 leukemia): > 42.9 µM
- TGI (RXF 393 renal): 16.2 µM
- TGI (SF-268 CNS): 21.6 µM
- TGI (SF-295 CNS): 10.9 µM
- TGI (SK-MEL-2 melanoma): 21 µM
- TGI (SK-MEL-28 melanoma): > 38.1 µM
- TGI (SK-MEL-5 melanoma): > 100 µM
- TGI (SK-OV-3 ovarian): 24.4 µM
- TGI (SN12C renal): > 48.1 µM
- TGI (SNB-19 CNS): 22.7 µM
- TGI (SNB-75 CNS): 16.5 µM
- TGI (SR leukemia): > 100 µM
- TGI (SW-620 colon): > 39.7 µM
- TGI (T-47D breast): > 48.8 µM
- TGI (TK-10 renal): 21.9 µM
- TGI (U251 CNS): 26.9 µM
- TGI (UACC-257 melanoma): 17 µM
- TGI (UACC-62 melanoma): 10.1 µM
- TGI (UO-31 renal): 12.4 µM
